Legend:
[1] = tested on: L6 myotubes; assay: Glucose uptake in L6 myotubes; format: cell-based; settings: 3 hr, concentration-dependent
Description: (§1) These assays were described previously, [25].

[2] = target: T1, AMPK α1(1–394) (Homo sapiens, UniProt Q13131); assay: Dephosphorylation of AMPK α1 truncation by PP2Cα; format: biochemical; parameters: dephosphorylation by PP2Cα on AMPK α1(1–394) and α1(1–335); settings: Fig. S1A
Protocol: (§2) The dephosphorylation of AMPK was performed as described previously, [24].

[3] = target: T2, AMPK α1(1–335) (Homo sapiens, UniProt Q13131); assay: Dephosphorylation of AMPK α1 truncation by PP2Cα; format: biochemical; parameters: dephosphorylation by PP2Cα on AMPK α1(1–394) and α1(1–335); settings: Fig. S1B
Protocol: as §2

[4] = tested on: rat primary hepatocytes; assay: Gene expression (real-time PCR) in rat primary hepatocytes; format: cell-based
Description: This assay was described previously. For details on primer sequences, see Legend for Table S1.

[5] = tested on: rat primary hepatocytes; assay: ADP/ATP ratio in rat primary hepatocytes; format: cell-based; settings: 3 hr
Description: as §1

[6] = tested on: rat primary hepatocytes; assay: Fatty acid synthesis ([14C] acetate incorporation) in rat primary hepatocytes; format: cell-based; settings: insulin 10 nmol/l, 24 hr exposure
Protocol: Fatty acid synthesis in rat primary hepatocytes was assayed by measuring [^14C] acetate incorporation into lipids. Rat hepatocytes were treated for 20 hr with ZLN024 at the concentrations described in FBS-free DMEM with or without 10 nmol/l insulin, followed by 4 hr incubation in fresh medium containing 0.1 µCi/ml sodium [^14C] acetate (3.7×103 Bq/ml). Thereafter, cells were washed three times by ice-cold PBS and analyzed as previously described, [22].

[7] = tested on: L6 myotubes; assay: Adenine nucleotide measurement (ADP/ATP ratio) in L6 myotubes; format: cell-based; settings: various concentrations, 3 hr, vs DMSO
Description: as §1

[8] = tested on: rat primary hepatocytes; assay: Glucose production (output) in rat primary hepatocytes; format: cell-based; settings: 5 hr, concentration-dependent
Description: as §1

[9] = target: T3, recombinant human AMPK α2β1γ1 (Homo sapiens, UniProt P54619+P54646); assay: Scintillation proximity assay (SPA), AMPK activation; format: biochemical
T3 construct: made in house
Protocol: (§3) Before the SPA assay, 200 nmol/l recombinant AMPK protein (α1β1γ1, α2β1γ1, α1β2γ1, α2β2γ1, α1(1–394), α1(1–335), α1(1–312)) was constructed, expressed, purified and fully phosphorylated as described previously. The SPA reactions were performed in 96-well plates in a final volume of 50 µl containing 20 mmol/l Tris-HCl, pH 7.5, 5 mmol/l MgCl2, 1 mmol/l DTT, 2 µmol/l biotin-SAMS, 2 µmol/l ATP and 7.4×10^3 Bq/well [γ-^33P]ATP. The reactions were initiated by the addition of 50 nmol/l recombinant AMPK protein to the reaction solutions, followed by incubation at 30°C for 2 hr. The reactions were then terminated by the addition of 40 µl of stop solution containing 80 µg streptavidin-coated SPA beads per well, 50 mmol/l EDTA and 0.1% Triton X-100 in PBS, pH 7.5, followed by incubation for 1 hr. Finally, 160 µl of suspension solution containing 2.4 mol/l CsCl, 50 mmol/l EDTA and 0.1% Triton X-100 in PBS, pH 7.5, was added to the reaction solution to suspend the SPA beads completely. The SPA signals were measured in a Wallac Microbeta plate counter (PerkinElmer, Waltham, MA, USA) 30 min later.

[10] = target: T4, recombinant human AMPK α1β2γ1 (Homo sapiens, UniProt Q13131); assay: as above; format: biochemical
T4 construct: made in house
Protocol: as §3

[11] = target: T5, recombinant human AMPK α2β2γ1 (Homo sapiens, UniProt P54646); assay: as above; format: biochemical
T5 construct: made in house
Protocol: as §3

[12] = target: T6, recombinant human AMPK α2β2γ1 (Homo sapiens, UniProt O43741+P54619+P54646); assay: as above; format: biochemical
T6 construct: made in house
Protocol: as §3

[13] = target: T7, recombinant human AMPK α1β2γ1 (Homo sapiens, UniProt O43741+P54619+Q13131); assay: as above; format: biochemical
T7 construct: made in house
Protocol: as §3

[14] = target: T1, AMPK α1(1–394); assay: SPA, inactive α1 subunit truncation; format: biochemical; parameters: α1(1–394), α1(1–335), α1(1–312); made in house
Protocol: as §3

[15] = target: T2, AMPK α1(1–335); assay: SPA, inactive α1 subunit truncation; format: biochemical; parameters: α1(1–394), α1(1–335), α1(1–312); made in house
Protocol: as §3

[16] = tested on: C57BKS db/db mice; assay: 5-week chronic study in db/db mice; format: in vivo, mouse
Description: db/db (Jackson Laboratory, BarHarbor, ME, USA) mice were bred at the Shanghai Institute of Materia Medica (Chinese Academy of Sciences, Shanghai, People's Republic of China).The animals were maintained under a 12 hr light-dark cycle with free access to water and food. Animal experiments were approved by the Animal Care and Use Committee, Shanghai Institute of Materia Medica. At 8 weeks of age, male db/db mice were randomly assigned to the various treatment groups by body weight and glucose levels (n = 6-8). The treatment groups for the 5-week chronic study were as follows: vehicle (0.5% methylcellulose), ZLN024 (15 mg/kg) and metformin (250 mg/kg). The treatments were orally administered once daily. The body weights and food intake were measured daily. After 5 weeks of treatment, the mice were killed after a final dose, and the tissues were collected for further analysis. This assay was described previously. For details on primer sequences, see Legend for Table S1. These assays were described previously, [25].

[17] = primary hepatocytes, 21 hr incubation
[18] = ZLN024 15 mg/kg/day by gavage, 5 weeks

T1 sequence (Q13131 10-403): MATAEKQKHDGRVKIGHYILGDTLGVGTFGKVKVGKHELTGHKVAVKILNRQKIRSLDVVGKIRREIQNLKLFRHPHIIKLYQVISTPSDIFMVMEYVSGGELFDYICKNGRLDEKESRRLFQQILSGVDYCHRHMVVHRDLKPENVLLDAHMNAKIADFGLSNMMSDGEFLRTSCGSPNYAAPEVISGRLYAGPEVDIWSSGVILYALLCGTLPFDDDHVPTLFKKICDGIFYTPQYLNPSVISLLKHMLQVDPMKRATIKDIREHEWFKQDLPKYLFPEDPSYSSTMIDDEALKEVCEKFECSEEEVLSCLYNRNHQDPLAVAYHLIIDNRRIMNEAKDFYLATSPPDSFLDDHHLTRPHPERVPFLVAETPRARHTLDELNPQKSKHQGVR
T3 sequence (P54646 whole entry): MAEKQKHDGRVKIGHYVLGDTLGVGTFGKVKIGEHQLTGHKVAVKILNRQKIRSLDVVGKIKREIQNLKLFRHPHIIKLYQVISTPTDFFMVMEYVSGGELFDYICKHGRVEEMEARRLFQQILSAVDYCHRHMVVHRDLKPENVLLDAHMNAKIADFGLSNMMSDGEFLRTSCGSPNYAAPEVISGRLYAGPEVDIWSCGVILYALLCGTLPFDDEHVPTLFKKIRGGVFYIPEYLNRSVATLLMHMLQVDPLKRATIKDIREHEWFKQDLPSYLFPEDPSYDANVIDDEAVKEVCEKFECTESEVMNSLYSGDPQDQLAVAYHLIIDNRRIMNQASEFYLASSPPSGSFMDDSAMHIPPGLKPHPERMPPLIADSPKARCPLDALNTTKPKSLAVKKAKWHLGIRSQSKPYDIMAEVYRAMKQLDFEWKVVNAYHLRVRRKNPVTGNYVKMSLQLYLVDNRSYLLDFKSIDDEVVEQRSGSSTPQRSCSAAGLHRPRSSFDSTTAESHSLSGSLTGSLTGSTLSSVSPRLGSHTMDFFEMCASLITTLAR
T3 sequence (Q9Y478 whole entry partner): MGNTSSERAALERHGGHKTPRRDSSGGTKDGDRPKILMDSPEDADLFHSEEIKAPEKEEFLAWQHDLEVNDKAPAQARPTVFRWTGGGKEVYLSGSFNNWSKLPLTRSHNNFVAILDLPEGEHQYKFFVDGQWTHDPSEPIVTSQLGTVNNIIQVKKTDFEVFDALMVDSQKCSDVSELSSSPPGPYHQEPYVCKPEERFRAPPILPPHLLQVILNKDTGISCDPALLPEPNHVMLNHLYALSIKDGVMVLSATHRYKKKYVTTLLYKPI
T3 sequence (P54619 whole entry): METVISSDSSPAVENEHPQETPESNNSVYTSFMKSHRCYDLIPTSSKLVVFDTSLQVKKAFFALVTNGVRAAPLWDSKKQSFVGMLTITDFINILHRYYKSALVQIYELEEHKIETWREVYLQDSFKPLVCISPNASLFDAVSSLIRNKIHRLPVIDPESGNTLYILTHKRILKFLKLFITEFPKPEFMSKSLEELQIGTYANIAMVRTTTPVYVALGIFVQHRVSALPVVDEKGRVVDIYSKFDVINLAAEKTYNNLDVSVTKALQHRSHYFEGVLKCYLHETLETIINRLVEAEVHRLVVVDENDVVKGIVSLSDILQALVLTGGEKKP
T2 sequence (Q13131 10-344): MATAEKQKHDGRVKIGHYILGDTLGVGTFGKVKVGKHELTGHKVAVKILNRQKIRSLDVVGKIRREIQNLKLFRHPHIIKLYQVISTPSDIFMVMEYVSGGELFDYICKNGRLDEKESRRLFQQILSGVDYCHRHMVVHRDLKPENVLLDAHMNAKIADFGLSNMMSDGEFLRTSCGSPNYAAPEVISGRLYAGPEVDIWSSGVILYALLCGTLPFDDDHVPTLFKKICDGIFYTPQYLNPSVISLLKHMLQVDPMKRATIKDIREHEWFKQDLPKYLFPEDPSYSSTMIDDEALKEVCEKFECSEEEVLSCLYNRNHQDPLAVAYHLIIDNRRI
T4 sequence (Q13131 10-559 limits assumed): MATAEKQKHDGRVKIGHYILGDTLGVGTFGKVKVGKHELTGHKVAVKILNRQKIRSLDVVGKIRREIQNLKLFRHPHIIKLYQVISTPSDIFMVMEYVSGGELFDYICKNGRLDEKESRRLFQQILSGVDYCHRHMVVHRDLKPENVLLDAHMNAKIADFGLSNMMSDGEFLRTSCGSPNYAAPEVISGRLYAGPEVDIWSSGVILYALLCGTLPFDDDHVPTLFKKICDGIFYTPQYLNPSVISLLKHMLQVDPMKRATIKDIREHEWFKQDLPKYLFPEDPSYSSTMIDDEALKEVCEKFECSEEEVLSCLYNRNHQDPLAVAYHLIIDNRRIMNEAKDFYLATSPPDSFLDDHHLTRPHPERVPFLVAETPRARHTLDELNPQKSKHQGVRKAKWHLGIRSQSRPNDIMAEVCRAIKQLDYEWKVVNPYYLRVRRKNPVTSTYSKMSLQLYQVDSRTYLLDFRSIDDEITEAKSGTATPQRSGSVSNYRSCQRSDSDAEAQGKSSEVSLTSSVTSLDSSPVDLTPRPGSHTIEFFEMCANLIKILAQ
T4 sequence (O43741 whole entry partner): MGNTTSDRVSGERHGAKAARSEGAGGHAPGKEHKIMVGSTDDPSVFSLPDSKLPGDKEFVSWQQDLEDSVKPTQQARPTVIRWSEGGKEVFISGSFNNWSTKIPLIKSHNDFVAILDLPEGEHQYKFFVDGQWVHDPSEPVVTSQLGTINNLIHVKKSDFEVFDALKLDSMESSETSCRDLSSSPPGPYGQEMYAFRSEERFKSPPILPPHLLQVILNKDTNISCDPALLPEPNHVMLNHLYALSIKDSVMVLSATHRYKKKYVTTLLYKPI
T4 sequence (P54619 whole entry partner): as the sequence (P54619 whole entry) above
T7 sequence (Q13131 10-559 limits assumed): as the sequence (Q13131 10-559 limits assumed) above
T7 sequence (O43741 whole entry partner): as the sequence (O43741 whole entry partner) above
T7 sequence (P54619 whole entry partner): as the sequence (P54619 whole entry) above
T6 sequence (P54646 whole entry): as the sequence (P54646 whole entry) above
T6 sequence (O43741 whole entry partner): as the sequence (O43741 whole entry partner) above
T6 sequence (P54619 whole entry partner): as the sequence (P54619 whole entry) above
T5 sequence (P54646 whole entry): as the sequence (P54646 whole entry) above
T5 sequence (O43741 whole entry partner): as the sequence (O43741 whole entry partner) above
T5 sequence (P54619 whole entry partner): as the sequence (P54619 whole entry) above

Cc1ccc(OCCSc2ncccn2)c(Br)c1 [ZLN024]
glucose uptake [1]: stimulated | effect on dephosphorylation of AMPK α1(1–394) by PP2Cα [2]: did not affect the dephosphorylation | effect on dephosphorylation of AMPK α1(1–335) by PP2Cα [3]: did not affect the dephosphorylation | mRNA level of G6Pase [4, 17]: decreased significantly | mRNA level of PEPCK [4, 17]: decreased significantly | gene expression of fatty acid synthase (FAS) ([4]; rat primary hepatocytes, 21 hr): significantly decreased | ADP/ATP ratio [5]: not affected | insulin stimulated synthesis of fatty acid [6]: significantly decreased | ADP/ATP ratio [7]: not affected | glucose production [8]: obviously repressed | EC50 ([9]; SPA): 950 nM | activation of α2β1γ1 activity ([9]; SPA): 1.7 fold | additional activation of AMPK α2β1γ1 ([9]; ZLN024 increased to 10 µmol/l in the presence of saturating AMP (12.5 µmol/l)): 1.3 fold | activation of α1β2γ1 activity [10]: 1.7 fold | activation of α2β2γ1 activity [11]: 1.6 fold | EC50 [12]: 130 nM | EC50 [13]: 1100 nM | maximal activation of α1(1–394) [14]: 2.3 fold | EC50 ([14]; read-out: EC50, activation of α1(1–394)): 920 nM | maximal activation of α1(1–335) [15]: 2.8 fold | EC50 ([15]; read-out: EC50, activation of α1(1–335)): 2230 nM | ACC phosphorylation in abdominal muscle and liver tissue ([16]; 15 mg/kg/day, 5 weeks): increased | AMPK phosphorylation in abdominal muscle and liver tissue ([16]; 15 mg/kg/day, 5 weeks): not affected | body weight compared with the vehicle group [16, 18]: no significant alteration | food intake compared with the vehicle group [16, 18]: no significant alteration | reduction of fasting blood glucose ([16]; ZLN024 15 mg/kg/day, 4 weeks, fasted 6 hr, not significant with ANOVA): 15% | abdominal muscle expression of fatty acid oxidation genes CPT-1, MCAD and LCAD ([16]; ZLN024 15 mg/kg/day, 5 weeks): significantly upregulated | abdominal muscle expression of mitochondrial biogenesis genes PGC-1α, cyto-c and ATPase ([16]; ZLN024 15 mg/kg/day, 5 weeks): upregulated | decrease of liver total cholesterol levels ([16]; ZLN024 15 mg/kg/day, 5 weeks): 20% | liver expression of PEPCK ([16]; ZLN024 15 mg/kg/day, 5 weeks): remained unchanged | liver expression of anabolic genes FAS, mtGPAT and G6Pase ([16]; ZLN024 15 mg/kg/day, 5 weeks): significantly reduced | liver expression of catabolic genes CPT1, LCAD, PDK4 and AOX ([16]; ZLN024 15 mg/kg/day, 5 weeks): mildly increased | liver/body weight reduction vs vehicle ([16]; ZLN024 15 mg/kg/day, 5 weeks): 9% | reduction of liver triacylglycerol levels ([16]; ZLN024 15 mg/kg/day, 5 weeks): approximately 45% | liver/body weight (wt/wt) ([16]; ZLN024 15 mg/kg/day, 5 weeks (vehicle 5.3%)): 4.8% | reduction in glucose tolerance AUC ([16]; ZLN024 15 mg/kg/day, after 4 weeks, i.p. glucose load 1.5 g/kg): approximately 15%

From paper PMC3748009, “Novel Small-Molecule AMP-Activated Protein Kinase Allosteric Activator with Beneficial Effects in db/db Mice” (PLoS ONE, 2013)
